According to patent US20260151367A1, “KIT TO PROMOTE DEVELOPMENTAL MYELINATION” (SOCIÉTÉ DES PRODUITS NESTLÉ S.A., priority 2022, published 2026):

Key:
[1] = tested on: myelin water fraction (MWF); assay: Random forest regression with feature selection for nutrients across ages; type: in vivo, human; details: listed in order of average importance after log Age
From the text: (§1) A linear model, like, was fitted to the dataset, all ages included, for each nutrient. Linear models with significant and positive coefficients for the nutrient intake terms were considered as indicative of a linear positive correlation with myelin. The myelin water fraction was Box Cox transformed to make it more symmetric. In addition, to account for possibly non-linear associations and for correlations between the nutrients, we performed a regression model using a random forest and used a feature selection algorithm for finding all relevant variables.
FIG. 2 compares the values of the transformed MWF with the values predicted by the random forest, on a test set.

[2] = tested on: myelin water fraction (MWF); assay: Linear model of myelin versus nutrient intake, all ages included; type: in vivo, human; details: for association with myelin levels in age-adjusted models across age windows: all ages, linear model; for nutIntake*logAge estimate / nutIntake estimate: linear model across ages, Box Cox transformed MWF; for nutIntake*logAge estimate: coefficient of the intake x log age interaction term; for nutIntake estimate: coefficient of the nutrient intake term
Procedure: The inventors have investigated the developmental dynamics of nutrient-myelin interactions from infancy to early childhood, using myelin imaging as a marker for brain maturation. Brain neuroimaging and infant nutritional intake information were analyzed from 293 children from a longitudinal cohort study in the US. A sliding window approach was used to investigate the relationship between the nutrient intake and brain region myelination over a continuous set of age windows.
For inclusion in the analysis of the present study, 293 children between 6 months and 60 months of age were selected who met the following criteria: 1. Singleton full-term (>37 weeks) pregnancy; 2. Uncomplicated pregnancy (i.e., no reports of pre-eclampsia, gestational hypertension or gestation diabetes mellitus, GDM); 3. No reports of abnormalities on fetal ultrasound; 4. Infant 5 minute APGAR scores ≥8; 5. Infant birth weight greater than 1500 g; 6. No reported history of neurological trauma in the child; 7. No reported sibling or parental psychiatric history, including autism; and 8. No reports of major depressive disorder requiring medication in the mother during pregnancy or in the 6 months prior to becoming pregnant. In addition, children had to have a successful MRI scan and time-matched nutrition intake information for at least one 24-hour period within a week of the MRI.
From the acquired mcDESPOT data, the myelin water fraction (MWF) was calculated using a processing pipeline that includes linear alignment of the SPGR, IR-SPGR, and bSSFP images to account for subtle intra-scan head movement, non-parenchyma voxel removal, and correction of flip angle errors and off-resonance inhomogeneities using DESPOT1-HIFI and DESPOT2-FM. A 3-pool tissue model was fit to the multi-angle SPGR and bSSFP data to estimate the MWF, a surrogate and non-invasive measure of myelin content. The MWF images (maps) were then non-linearly aligned to a common analysis space in approximate MNI space using a previously described multi-step approach that first aligns the subject's high flip angle T1 weighted SPGR image to one of 14 age-specific templates and then to an overall study-specific template using non-linear 3D deformation, ANTS. The calculated transformation matrices are then applied to the quantitative MWF maps.
Nutrient intake data was collected through the Automated Self-Administered 24-hour dietary assessment tool (ASA-24). The average daily nutrient intake per scan age was calculated, resulting in 293 observations with 88 nutrients. Values for amino acids and phospholipids, including sphingomyelin, were retrieved from the relevant United States Department of Agriculture (USDA) databases. The USDA choline database contains the values of free choline, glycerophosphocholine, phosphocholine, phosphatidylcholine and sphingomyelin for about 630 foods. […] The oligosaccharides 3′SL and 6′SL are only found in milk products, values of 114 and 23 mg/100 g were used for their respective concentrations in cow's milk. For the estimation of oligofructose, the inventors based their calculations on Moshfegh et al. J. Nutr. 1999; 129(7 Suppl): 1407s-11s. We then mapped the foods reported in ASA-24 to the corresponding items in the USDA database and calculated the daily totals.
as §1

[3] = tested on: myelination; details: potentially via a reduction in sialylated binding targets for the myelin associated glycoprotein; cited from earlier work

[Ca+2] [Calcium]
variables selected by the random forest model, sorted by average importance [1]: selected by the random forest model

CC(=O)N[C@H]1[C@H]([C@H](O)[C@H](O)CO)O[C@@](O[C@H]2[C@@H](O)[C@@H](CO)O[C@@H](O[C@H]3[C@H](O)[C@@H](O)C(O)O[C@@H]3CO)[C@@H]2O)(C(=O)O)C[C@@H]1O (stereo partly shown) [3′SL, 3′-sialyllactose]
association with myelin levels in age-adjusted models across age windows [2]: linked with higher myelin levels | nutIntake*logAge estimate [2]: 0.000 | nutIntake estimate [2]: 0.002 | variables selected by the random forest model, sorted by average importance [1]: selected by the random forest model

CC(=O)N[C@H]1[C@H]([C@H](O)[C@H](O)CO)O[C@@](OC[C@H]2O[C@@H](O[C@H]3[C@H](O)[C@@H](O)[C@H](O)O[C@@H]3CO)[C@H](O)[C@@H](O)[C@H]2O)(C(=O)O)C[C@@H]1O [6′SL, 6′-sialyllactose]
association with myelin levels in age-adjusted models across age windows [2]: linked with higher myelin levels | nutIntake*logAge estimate [2]: −0.001 | nutIntake estimate [2]: 0.009 | impact on myelination in a preclinical study [3]: impact myelination

N[C@@H](CO)C(=O)O [Serine]
variables selected by the random forest model, sorted by average importance [1]: selected by the random forest model

Sphingomyelin
variables selected by the random forest model, sorted by average importance [1]: selected by the random forest model

Phosphatidylserine
variables selected by the random forest model, sorted by average importance [1]: selected by the random forest model

CSCC[C@H](N)C(=O)O [Methionine]
variables selected by the random forest model, sorted by average importance [1]: selected by the random forest model

Phosphatidylcholine
variables selected by the random forest model, sorted by average importance [1]: selected by the random forest model

[P] [Phosphorus]
variables selected by the random forest model, sorted by average importance [1]: selected by the random forest model

NCCCC[C@H](N)C(=O)O [Lysine]
association with myelin levels in age-adjusted models across age windows [2]: linked with higher myelin levels | nutIntake*logAge estimate [2]: −0.005 | nutIntake estimate [2]: 0.033

CC1=C(/C=C/C(C)=C/C=C/C(C)=C/C=C/C=C(C)/C=C/C=C(C)/C=C/C2=C(C)CCCC2(C)C)C(C)(C)CCC1 [Carotene, beta]
variables selected by the random forest model, sorted by average importance [1]: selected by the random forest model

Octadecadienoic acid [Octadecadienoic (Linoleic, 18:2)]
variables selected by the random forest model, sorted by average importance [1]: selected by the random forest model

Phosphatidylinositol
variables selected by the random forest model, sorted by average importance [1]: selected by the random forest model

CC[C@H](C)[C@H](N)C(=O)O [Isoleucine]
variables selected by the random forest model, sorted by average importance [1]: selected by the random forest model

B1: α-lactalbumin: whey protein of 123 amino acids and 4 disulfide bridges, molecular weight 14.2K Daltons (protein, UniProt P00711 20-142, looked up)
Alpha-lactalbumin: EQLTKCEVFRELKDLKGYGGVSLPEWVCTTFHTSGYDTQAIVQNNDSTEYGLFQINNKIWCKDDQNPHSSNICNISCDKFLDDDLTDDIMCVKKILDKVGINYWLAHKALCSEKLDQWLCEKL
association with myelin levels in age-adjusted models across age windows [2]: linked with higher myelin levels | nutIntake*logAge estimate [2]: −0.014 | nutIntake estimate [2]: 0.097
